# What was measured:
# [1] = differential scanning calorimetry of the inverse temperature transition: ΔGHA-based hydrophobicity scale; format: physicochemical; settings: from Table 1
# Description: Described herein is a hydrophobicity scale based on the change in Gibbs free energy of hydrophobic association. Increase in entropy of water drives endothermic phase transition of hydrophobic association. For a narrow phase transition the chemical potential, t, of the molecules in the phase separated, hydrophobically associated state, 1.IHA, and the solution, hydrophobically dissociated state, 1.1HD, are equal. Therefore, at constant temperature and pressure, i.e., at equilibrium, the change in Gibbs free energy for the phase transition is zero, (ΔGt)TP=0 and ΔHT=TtΔSt. For the breadth of the transition of elastic-contractile model proteins [ECMP], it is written: ΔHt≈TtΔSt, (1) i.e., the heat of the transition, ΔHt in kcal/mol, is approximated by the product of the temperature of the transition, Tt in ° K, times the entropy change attending the transition, ΔSt in kcal/° K-mol.
# The van der Walls interaction is exothermic for the hydrophobic association attending the ITT, yet the ITT is endothermic. […] The derivation of the change in Gibbs free energy for hydrophobic association, ΔGHA, and evaluation by inverse temperature transition of hydrophobic association has been reported previously (D. W. Urry, The Change in Gibbs Free Energy for Hydrophobic Association Derivation and Evaluation by means of Inverse Temperature Transitions. Chem. Phys. Letters 399 (2004) 177-183.), and is given more simply below. […]
# Given the above approximation, but also recognizing that ASt is a calculated result from the differential scanning calorimetric measurement of ΔHt, we define the change in Gibbs free energy for hydrophobic association, ΔGHA, as,
# The differential scanning calorimetry (DSC) data of ΔHt(GVGVP) (SEQ ID NO:4) and ΔHt(GVGIP) (SEQ ID NO:8) in FIG. 1 of Luan and Urry, J Phys Chem 95:7896-7900, 1991 provide a specific example of the difference that defines ΔGHA. […] This is the same value of 1.5 kcal/mol-CH2 for the addition of a single CH2 as determined by Butler for the alcohol series.
# Once the values are determined by difference with ΔHt(GVGVP) (SEQ ID NO:4) as represented in FIG. 1E, they are translated so the reference polymer is taken as (GGGVP (SEQ ID NO:11), as this residue is considered to be close to neutral, being neither polar nor apolar. For use of (GGGVP) (SEQ ID NO:11) as the reference, i.e., ΔHt(GGGVP) (SEQ ID NO:11)=AHt(ref), in Table 3 and FIG. 13, the change in Gibbs free energy for hydrophobic association is indicated as ΔG^oHA, i.e., […]
# In this case most of the ΔG^oHA values have been obtained by taking the experimental Tt, suitably extrapolated to fx=1 to obtain Tt, and reading the value of ΔG^oHA from the sigmoid curve of FIG. 13. […]
# [2] = cited from earlier work; for Tt: guest residue χ in poly[fχ(GχGVP),fv(GVGVP)], extrapolated to fχ=1, some cells marked (Tt); for Tt (data within parentheses): microbial preparations of poly(30 mers) (GVGVP GVGVP GχGVP GVGVP GVGVP GVGVP)n, n ≈ 40
# [3] = cited from earlier work; for ΔG°HA(GχGVP): reference GGGVP = 0; for ΔG°HA(GχGVP) (data within parentheses): microbial preparations of poly(30 mers), n ≈ 40; for ΔG°HA(GχGVP) (from graph): Tt used to obtain value from experimental sigmoid curve of Tt versus ΔG°HA
# [4] = controlled release of charged drug from oppositely charged ECMP; format: physicochemical; settings: release of Leu-enkephalin amide (LEA+); for zero order release level per day: after burst release, constant surface area
# Description: For controlled release of pharmaceuticals, positively charged drugs packaged in negatively charged ECMP result in zero-order release. Once the rate of drug release and its ΔGap have been determined for one member of a related family of ECMP, the release rates for another member of the family can be calculated from the acid-base titration data. […] Thus, the thermodynamics of model protein hydration can be determined for a designed ECMP with a known release rate and used to calculate the release rates of a drug from a related ECMP for which only the acid-base titration data has been determined.
# FIG. 3 is a plot showing controlled release of positively charged Leu-enkephalin amide (H+-Tyr-Gly-Gly-Phe-Leu-NH2, (SEQ ID NO:6), LEA+) using chemically-synthesized, negatively-charged polymers with designed increases in hydrophobicity giving ΔpKa values of 0.9, 1.3, and 2.2 and ΔGap values of 1.2, 1.8, and 3.0 kcal/mol-E, respectively. After burst release due to 50% excess drug over polymer sites, a constant surface area maintains zero order release levels per day continuing at 4.7 μmole for 25 days, 2.7 μmole for 30 days, and 1.9 μmole for 70 days, respectively. The amino acid sequences from top to bottom are: SEQ ID NO:12, SEQ ID NO:13 and SEQ ID NO:14.
# FIG. 5 is a pair of graphs of release profiles showing lower rates of drug release as n of nF increases, that is, as increasing numbers of Val (V) residues are replaced by Phe (F) residues using the series of Lys(K)/Phe(F)-containing model proteins of Table 3 with Φ=K. As the negatively-charged drug is added to the soluble positively-charged model protein phase separation occurs. Drug is added to a 50% excess, which is responsible for the burst release. A. Dexamethasone-phosphate release curves and B. Betamethasone-phosphate release curves.
# [5] = acid-base titration of elastic-contractile model proteins (pKa shift, Hill plot); format: physicochemical; settings: for ΔGap / ΔpKa: chemically-synthesized negatively-charged polymers of FIG. 3
# [6] = Φ = E (glutamic acid, —COOH), cited from earlier work; for (∂ΔG/∂α) slope: from Hill plot; for ΔGgp (pKa shift): unperturbed pKa taken as 4.0
Substance,Tt [2],ΔG°HA(GχGVP) ([3]; DSC),also measured
Leu [L: Leu],5 °C,−4.05 kcal/mol-pentamer,change on replacement of Val by Leu (single —CH2—) [1]: −1.55 kcal/mol-CH2
Ile [I: Ile],10 °C,−3.65 kcal/mol-pentamer,
Gln [Q: Gln],70 °C,+0.75 kcal/mol-pentamer,
Trp [W: Trp],−105 °C,−7.00 kcal/mol-pentamer,
Gly [G: Gly],55 °C,0.00 kcal/mol-pentamer,
(GFGFPGEGFPGFGFPGFGFPGEGFPGFGFP)n (GFGFPGEGFPGFGFP) [ECMP2E/10F],,,duration of zero order release [4]: 70 days; zero order release level per day [4]: 1.9 µmol; pK of the carboxylate [5]: ~6.2; ΔGap [5]: 3.0 kcal/mol-E; ΔpKa [5]: 2.2
[GVGVP GVGFP GΦGFP GVGVP GVGFP GVGFP]n(GVGVP) (GVGVPGVGFPGGFPGVGVPGVGFPGVGFPGVGVP) [E/4F],,,(∂ΔG/∂α) slope [6]: 2.2 kcal/mol; ΔGgp (pKa shift) [6]: 2.2 kcal/mol
Lys(NH2) [K°: Lys(NH2)],40 °C,−0.05 kcal/mol-pentamer,Tt (data within parentheses) [2]: 38 °C; ΔG°HA(GχGVP) (data within parentheses) [3]: −0.60 kcal/mol-pentamer
[GVGVP GVGVP GΦGVP GVGVP GVGVP GVGVP]n(GVGVP) (GVGVPGVGVPGGVPGVGVPGVGVPGVGVPGVGVP) [E/0F],,,(∂ΔG/∂α) slope [6]: 1.1 kcal/mol; ΔGgp (pKa shift) [6]: 0.7 kcal/mol
[GVGVP GVGVP GΦGVP GVGVP GVGFP GFGFP]n(GVGVP) (GVGVPGVGVPGGVPGVGVPGVGFPGFGFPGVGVP) [E/3F],,,(∂ΔG/∂α) slope [6]: 1.7 kcal/mol; ΔGgp (pKa shift) [6]: 1.6 kcal/mol
His+ [H+: His+],30 (Tt) ° C.,,ΔG°HA(GχGVP) (from graph) [3]: −1.90 (from graph) kcal/mol-pentamer
Glu(COOH) [E°: Glu(COOH)],20 °C,−1.30 kcal/mol-pentamer,Tt (data within parentheses) [2]: 2 °C; ΔG°HA(GχGVP) (data within parentheses) [3]: −1.50 kcal/mol-pentamer
Lys(NH3+) [K+: Lys(NH3+)],,,ΔGHA of ionization (neutral versus charged residue) [1]: 3.5 kcal/mol-pentamer; Tt (data within parentheses) [2]: (104) ° C.; ΔG°HA(GχGVP) (data within parentheses) [3]: (+2.94) kcal/mol-pentamer
Ser [S: Ser],60 °C,+0.55 kcal/mol-pentamer,
"N-methyl-6-OH 1,4,5,6-tetrahydronicotinamide [Lys (6-OH tetrahydro NMeN)]",,,"Tt linearly extrapolated to fX = 1 ([2]; poly[fV(VPGVG),fX(VPGXG)], 5.0 mg/ml polymer, 0.1M potassium bicarbonate pH 9.5, 0.1M KCl): 15 °C; ΔG°HA from FIG. 13 ([3]; gross estimates from Tt and curve, 5.0 mg/ml polymer, 0.1M potassium bicarbonate pH 9.5, 0.1M KCl): -3.5 kcal/mol"
Tyr [Y: Tyr],−75 °C,−5.85 kcal/mol-pentamer,

Substance,Tt [2],ΔG°HA(GχGVP) ([3]; DSC),also measured
"SEQ ID NO:13: chemically-synthesized, negatively-charged polymer of FIG. 3, middle sequence (GEGVPGVGVPGVGFPGFGFPGVGVPGVGVP)",,,duration of zero order release [4]: 30 days; zero order release level per day [4]: 2.7 µmol; ΔGap [5]: 1.8 kcal/mol-E; ΔpKa [5]: 1.3
[GVGVP GVGFP GΦGFP GVGVP GVGFP GFGFP]n(GVGVP) (GVGVPGVGFPGGFPGVGVPGVGFPGFGFPGVGVP) [E/5F],,,(∂ΔG/∂α) slope [6]: 3.0 kcal/mol; ΔGgp (pKa shift) [6]: 3.1 kcal/mol
Pro [P: Pro],40 °C,−1.10 kcal/mol-pentamer,
Phe [F: Phe],−45 °C,−6.15 kcal/mol-pentamer,
"SEQ ID NO:12: chemically-synthesized, negatively-charged polymer of FIG. 3, top sequence, least hydrophobic (GVGFPGEGFPGVGVP)",,,duration of zero order release [4]: 25 days; zero order release level per day [4]: 4.7 µmol; ΔGap [5]: 1.2 kcal/mol-E; ΔpKa [5]: 0.9
Asp(COO−) [D−: Asp(COO−)],170 (Tt) ° C.,,ΔG°HA(GχGVP) (from graph) [3]: ≈+3.4 (from graph) kcal/mol-pentamer
Met [M: Met],15 °C,−1.50 kcal/mol-pentamer,
Thr [T: Thr],60 °C,−0.60 kcal/mol-pentamer,
Cys [C: Cys],30 (Tt) ° C.,,ΔG°HA(GχGVP) (from graph) [3]: −1.90 (from graph) kcal/mol-pentamer
Tyr(ϕ-O−) [Y−: Tyr(ϕ-O−)],140 °C,+1.95 kcal/mol-pentamer,
[GVGVP GVGFP GΦGFP GVGVP GVGVP GVGVP]n(GVGVP) (GVGVPGVGFPGGFPGVGVPGVGVPGVGVPGVGVP) [E/2F],,,(∂ΔG/∂α) slope [6]: 1.3 kcal/mol; ΔGgp (pKa shift) [6]: 1.0 kcal/mol
His° [H°: His°],−10 (Tt) ° C.,,ΔG°HA(GχGVP) (from graph) [3]: −4.80 (from graph) kcal/mol-pentamer
Val [V: Val],26 °C,−2.50 kcal/mol-pentamer,
Asp(COOH) [D°: Asp(COOH)],40 °C,−0.40 kcal/mol-pentamer,
(GVGIP) [pentamer polymer with a single CH2 added to GVGVP],,,"ΔGHA due to the addition of a single CH2 ([3]; DSC, difference of ΔHt(GVGVP) and ΔHt(GVGIP)): −1.5 kcal/mol-pentamer"
Asn [N: Asn],50 °C,−0.05 kcal/mol-pentamer,
